# Numbers after ± are expanded uncertainties.
# Conditions: Crystal; DTA
row,Normal melting temperature,Structure (SMILES)
1,150 ± 1 °C,CC(C)CCC[C@@H](C)[C@H]1CC[C@H]2[C@@H]3CC=C4C[C@@H](OC(=O)c5ccccc5)CC[C@]4(C)[C@H]3CC[C@]12C [3β-benzoyloxycholest-5-ene]
2,99 ± 1 °C,CCCC(=O)O[C@H]1CC[C@@]2(C)C(=CC[C@H]3[C@@H]4CC[C@H]([C@H](C)CCCC(C)C)[C@@]4(C)CC[C@@H]32)C1 [3β-butanoyloxycholest-5-ene]

# Reference: the NIST ThermoML archive (doi:10.1016/j.fluid.2008.07.012)
